Reference: US20130189775A1, “MODULATION OF THE […] RECEPTOR mTOR TO INHIBIT STEM CELL DIFFERENTIATION INTO NEURONS” (priority 2011, published 2013)
“Also recorded” adds a separate entry of the source.

Columns and labels:
[1] = tested on: quiescent human epidermoid carcinoma A431; test: EGF-induced DMR response of quiescent A431 cells (optical biosensor); assay type: cell-based
From the text: The DMR signal mediated through a particular target is an integrated and quantifiable signal that is a sum of contributions from mass redistribution occurring at different distances away from the sensor surface. Because of the complex nature of cell signaling, the activation of distinct cell signaling mediated through different targets might result in similar overall DMR signal. However, because of the participation of unique sets of cellular targets for a specific signaling event, the modulation profiles mediated by a predetermined set of selective modulators might provide a means to classify the specificity of cell signaling being activated by a particular stimulus. Therefore, the DMR response can be treated as a unique and perfect readout for systems biology studies of living cells. […] The effect of various known inhibitors/drugs on the DMR response of quiescent A431 cells linked the cell response to mainly the Ras/mitogen-activated protein (MAP) kinase pathway, which primarily proceeds through MEK.
Another biosensor output parameter can be the kinetics of any of the aspects of data output. For example, the rate at the completion of the phase transitions. For example, how fast are the phase transitions completed or how long does it take to complete data output. Another example of the kinetics that can be measured would be the length of time for which an overall phase of the data output takes. Another example is the total duration of time of one or both of the P- and N-DMR phases. Another example is the rate or time in which it takes to acquire the total amplitudes of one or both of the P- and N-DMR phases. Another example can be the transition time τ from the P- to N-DMR phase. The kinetics of both P-DMR and N-DMR events or phases can also be measured. For example, stimulation of human quiescent human epidermoid carcinoma A431 with epidermal growth factor (EGF) results in a dynamic response consisting of at least three phases. […]

[2] = tested on: ReN cells; test: ReN cell neural progenitor differentiation, phase contrast microscopy; assay type: cell-based, human; details: for block of neural progenitor differentiation by PI3-K / Akt inhibitors: ReN cells differentiated in presence of inhibitor for 6-7 days (FIG. 3, FIG. 4)
Method: To evaluate the role of kinases in the differentiation of neural stem cells, we added kinase inhibitors from the BIOMOL kinase inhibitor library to the culture during the differentiation process. Kinase inhibitors were replaced on alternate days during media change. Cultures were grown for 6-7 days. We used phase contrast imaging and immunocytochemistry to understand the difference in the morphological differentiation.
General procedure for neuronal stem cell culture on laminin surface: • 96 well CellBind™ treated plates were washed with 70% ethanol and kept ON in the hood • Next day morning, plates were washed twice with 1×PBS • Laminin (50 μl, 20 μg/ml) was added to the wells and incubated 37° C. incubator for 5 hrs. • Wells were washed with 1×PBS after incubation. • Cells were seeded at 20,000 cells/well • For undifferentiated cells, the cultures were grown for 9 days. Media was changed everyday with growth factor supplementation • For differentiated cells, the growth factor deprived media was added after next day after seeding and cells were grown further for 6 days with media changes every other day. • Rapamycin and other inhibitors were added to the cells when the media was changed to growth factor independent media. Media was maintained throughout the study and changed on alternate days. ReNcell NSC Maintenance Medium contains DMEM/F12 w/o HEPES, w/L-Glutamine, human serum albumin, human transferrin, putrescine dihydrochloride, human recombinant insulin, L-thyroxine, Tri-iodo-thyronine, progesterone, sodium selenite, heparin, corticosterone. […] The growth factors used were EGF (Epidermal growth factor) and bFGF (Basic fibroblast growth factor).
Kinase inhibitors (1 μM) was added to the cells next day after seeding and replenished during media changes on alternate days. Phase contrast microscopy was done after 6 days as described below. […]
After the experiment, the cells were fixed with 4% paraformaldehyde and washed thrice with 1×PBS. Cells were assessed using a Ziess Axiovert 200M inverted Brightfield/fluorescence microscope.

[3] = tested on: ReN cells; test: Epic label-free RWG biosensor receptor assay on ReN cells; assay type: cell-based, human; details: Epic single step assay; for agonist response profile, undifferentiated versus differentiated cells: ReN cells (FIG. 6); for agonist response of differentiated cells: ReN cells differentiated without rapamycin (FIG. 6)
Method: The label-free biosensor assays for various receptors was done in the presence of various concentrations of a typical agonist using Corning Epic® system. Assay on undifferentiated cells was carried out simultaneously. […] Undifferentiated receptor profiles were similar to rapamycin treated cells indicating the blockage of differentiation by rapamycin.
ReN Cells were treated with or without rapamycin (5 μM) for 6 days. Cells were washed with HBSS and loaded onto Epic instrument for a single step assay with various receptor agonists. Undifferentiated cells grown for 3-4 days (till confluency) and run of Epic instrument as described above.

## COc1cc2ncnc(Nc3cccc(Cl)c3)c2cc1OC [AG1478]
[1]
  suppression of EGF-induced DMR response: fully suppressed

## C[C@@H](N)[C@H]1CC[C@H](C(=O)Nc2ccncc2)CC1 [Y27632]
[2]; Y27632 1 μM, 6-7 days (FIG. 5)
  block of neural progenitor cell differentiation by ROCK inhibitor: had no effect on the differentiation process; also recorded: did not block neural progenitor cell differentiation

## NCCc1ccc(O)c(O)c1 [dopamine]
[3]
  agonist response profile, undifferentiated versus differentiated cells: different profiles

## Nc1ncnc2c1ncn2[C@@H]1O[C@H](CO)[C@@H](O)[C@H]1O [Adenosine]
[3]
  agonist response profile, undifferentiated versus differentiated cells: different profiles

## EGF: epidermal growth factor
[1]; EGF stimulation, read-out: EC50 from amplitudes of the N-DMR signals
  EC50: ~1.45 nM
[1]; EGF stimulation, read-out: Kd from one-phase decay constant κ of the N-DMR signal
  Kd: 5.76 nM

## CNC[C@H](O)c1ccc(O)c(O)c1 [epinephrine]
[3]
  agonist response profile, undifferentiated versus differentiated cells: different profiles

## NCCc1c[nH]c2ccc(O)cc12 [serotonin]
[3]
  agonist response of differentiated cells: did not responds to these stimuli

## O=c1[nH]c2ccccc2n1C1CCN(Cc2ccc(-c3[nH]c4cc5ncnc5cc4nc3-c3ccccc3)cc2)CC1 [A6730]
[2]
  block of neural progenitor differentiation by PI3-K / Akt inhibitors: did not block the neural progenitor differentiation

## O=C(O)c1ccc2nc(-c3ccccc3)c(-c3ccccc3)nc2c1 [BML-257]
[2]
  block of neural progenitor differentiation by PI3-K / Akt inhibitors: did not block the neural progenitor differentiation

## NCCCC(=O)O [GABA]
[3]
  agonist response of differentiated cells: did not responds to these stimuli
